Key:
Assay type in all cases: biochemical
[1] = target: T1, JAK3 (catalytic domain, His-tag) (Homo sapiens, UniProt P52333); assay: JAK kinase assay (HTRF, phosphorylation of TK substrate-biotin), JAK3; details: ATP at Km (2 μM); read-out: JAK3 kinase inhibitory activity (EC50 indicator)
T1 construct: All four purified enzymes contain only the catalytic domain; His (N); purchased Carna Biosciences, Inc; host or cells: baculovirus expression system
How it was run: (§1)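 Per reaction, 5 ng JAK1, 0.1 ng JAK2, 0.3 ng JAK3 or 0.8 ng TYK2 (baculovirus-expressed catalytic domains) acted on 1 μM TK substrate-biotin at Km ATP for 20-30 min, RT. Phosphorylation measured by HTRF.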

[2] = target: T2, JAK1 (aa 850-1154, catalytic domain, GST-tag) (Homo sapiens, UniProt P23458); assay: JAK kinase assay (HTRF, phosphorylation of TK substrate-biotin), JAK1; details: ATP at Km (7 μM); read-out: JAK1 kinase inhibitory activity (EC50 indicator)
T2 construct: JAK1 (aa 850-1154) and TYK2 (aa 871-1187) are expressed with an N-terminally fused GST-tag; GST (N); purchased Carna Biosciences, Inc; host or cells: baculovirus expression system
How it was run: as §1

[3] = target: T3, TYK2 (aa 871-1187, catalytic domain, GST-tag) (Homo sapiens, UniProt P29597); assay: JAK kinase assay (HTRF, phosphorylation of TK substrate-biotin), TYK2; details: ATP at Km (13 μM); read-out: TYK2 kinase inhibitory activity (EC50 indicator)
T3 construct: JAK1 (aa 850-1154) and TYK2 (aa 871-1187) are expressed with an N-terminally fused GST-tag; GST (N); purchased Carna Biosciences, Inc; host or cells: baculovirus expression system
T3 sequence (P29597 871-1187): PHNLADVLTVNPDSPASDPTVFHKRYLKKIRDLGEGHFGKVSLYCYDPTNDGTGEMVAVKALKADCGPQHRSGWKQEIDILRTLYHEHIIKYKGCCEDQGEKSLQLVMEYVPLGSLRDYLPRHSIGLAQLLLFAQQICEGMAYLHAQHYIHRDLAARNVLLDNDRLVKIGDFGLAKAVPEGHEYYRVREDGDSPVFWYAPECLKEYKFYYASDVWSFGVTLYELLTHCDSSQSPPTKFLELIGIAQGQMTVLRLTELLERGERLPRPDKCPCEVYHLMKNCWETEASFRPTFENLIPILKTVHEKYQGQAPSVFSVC
How it was run: as §1

[4] = target: T4, JAK2 (catalytic domain, His-tag) (Homo sapiens, UniProt O60674); assay: JAK kinase assay (HTRF, phosphorylation of TK substrate-biotin), JAK2; details: ATP at Km (4 μM); read-out: JAK2 kinase inhibitory activity (EC50 indicator)
T4 construct: All four purified enzymes contain only the catalytic domain; His (N); purchased Carna Biosciences, Inc; host or cells: baculovirus expression system
How it was run: as §1

T4 sequence (O60674 849-1124 limits assumed): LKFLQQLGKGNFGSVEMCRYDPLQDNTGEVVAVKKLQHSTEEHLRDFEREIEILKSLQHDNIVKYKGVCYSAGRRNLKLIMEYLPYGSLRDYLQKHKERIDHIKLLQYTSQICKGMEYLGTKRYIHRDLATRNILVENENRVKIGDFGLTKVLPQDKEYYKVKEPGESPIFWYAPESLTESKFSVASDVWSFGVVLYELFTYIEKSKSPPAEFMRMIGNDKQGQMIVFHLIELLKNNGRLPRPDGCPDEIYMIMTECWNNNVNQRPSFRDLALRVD
T2 sequence (P23458 850-1154): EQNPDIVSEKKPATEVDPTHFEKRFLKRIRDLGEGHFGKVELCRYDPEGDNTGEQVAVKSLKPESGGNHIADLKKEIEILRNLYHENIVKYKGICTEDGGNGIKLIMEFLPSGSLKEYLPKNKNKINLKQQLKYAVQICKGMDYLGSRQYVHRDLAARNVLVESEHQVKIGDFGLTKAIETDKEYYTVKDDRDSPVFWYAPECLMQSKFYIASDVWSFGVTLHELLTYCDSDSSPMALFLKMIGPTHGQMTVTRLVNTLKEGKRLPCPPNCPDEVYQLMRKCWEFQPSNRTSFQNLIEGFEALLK
T1 sequence (P52333 822-1111 limits assumed): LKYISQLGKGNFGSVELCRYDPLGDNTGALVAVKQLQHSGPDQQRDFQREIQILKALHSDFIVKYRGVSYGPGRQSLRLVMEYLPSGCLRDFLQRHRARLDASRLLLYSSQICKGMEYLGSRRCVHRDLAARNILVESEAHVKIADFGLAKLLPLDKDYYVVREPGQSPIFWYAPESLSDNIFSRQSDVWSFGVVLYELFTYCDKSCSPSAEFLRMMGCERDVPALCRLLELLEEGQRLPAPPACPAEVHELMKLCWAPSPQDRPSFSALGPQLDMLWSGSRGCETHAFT

| EC50 [1] [nM] | EC50 [2] [nM] | EC50 [3] [nM] | EC50 [4] [nM] | SMILES |
| --- | --- | --- | --- | --- |
| < 100 | < 100 | < 100 | < 100 | Cc1csc(C(=O)N2CCN(c3ncnc4[nH]ccc34)CC23CC3)c1 [Example 62, (4-Methyl-thiophen-2-yl)-[7-(7H-pyrrolo[2,3-d]pyrimidin-4-yl)-4,7-diaza-spiro[2.5]oct-4-yl]-methanone] |
| 100 to 500 | < 100 | > 500 | < 100 | N#Cc1ccc(C(F)(F)C(=O)N2CCN(c3ncnc4[nH]ccc34)CC23CC3)cc1 [Example 64, 4-{1,1-Difluoro-2-oxo-2-[7-(7H-pyrrolo[2,3-d]pyrimidin-4-yl)-4,7-diaza-spiro[2.5]oct-4-yl]-ethyl}-benzonitrile] |
| 100 to 500 | < 100 | 100 to 500 | < 100 | N#CCOc1cccc(C(=O)N2CCN(c3ncnc4[nH]ccc34)CC23CC3)c1 [Example 67, {3-[7-(7H-Pyrrolo[2,3-d]pyrimidin-4-yl)-4,7-diaza-spiro[2.5]octane-4-carbonyl]-phenoxy}-acetonitrile] |
| > 500 | 100 to 500 | > 500 | 100 to 500 | Cc1cnc(C(=O)N2[C@@H]3CC[C@H]2CN(c2ncnc4[nH]ccc24)C3)cn1 [Example 74, (5-Methyl-pyrazin-2-yl)-[3-(7H-pyrrolo[2,3-d]pyrimidin-4-yl)-3,8-diaza-bicyclo[3.2.1]oct-8-yl]-methanone] |
| > 500 | > 500 | > 500 | > 500 | O=C(c1cc2ccccc2s1)N1CCN(c2ncnc3[nH]ccc23)CC12CCCC2 [Example 75, Benzo[b]thiophen-2-yl-[9-(7H-pyrrolo[2,3-d]pyrimidin-4-yl)-6,9-diaza-spiro[4.5]dec-6-yl]-methanone] |
| 100 to 500 | < 100 | > 500 | < 100 | N#Cc1ccc(CS(=O)(=O)N2CCN(c3ncnc4[nH]ccc34)CC23CC3)cc1 [Example 79, 4-[7-(7H-Pyrrolo[2,3-d]pyrimidin-4-yl)-4,7-diaza-spiro[2.5]octane-4-sulfonylmethyl]-benzonitrile] |
| > 500 | 100 to 500 | > 500 | 100 to 500 | O=C(c1cc2ccccc2s1)N1CCN(c2ccnc3[nH]ccc23)CC12CC2 [Example 82, Benzo[b]thiophen-2-yl-[7-(1H-pyrrolo[2,3-b]pyridin-4-yl)-4,7-diaza-spiro[2.5]oct-4-yl]-methanone] |

More lines, now with the values behind:

| SMILES | EC50 [1] [nM] | EC50 [2] [nM] | EC50 [3] [nM] | EC50 [4] [nM] |
| --- | --- | --- | --- | --- |
| O=C(c1cc2c(s1)CCC2)N1CCN(c2ncnc3[nH]ccc23)CC12CC2 [Example 61, (5,6-Dihydro-4H-cyclopenta[b]thiophen-2-yl)[7-(7H-pyrrolo[2,3-d]pyrimidin-4-yl)-4,7-diaza-spiro[2.5]oct-4-yl]-methanone] | < 100 | < 100 | < 100 | < 100 |
| NS(=O)(=O)c1ccc(C(=O)C(=O)N2CCN(c3ncnc4[nH]ccc34)CC23CC3)cc1 [Example 63, 4-{2-Oxo-2-[7-(7H-pyrrolo[2,3-d]pyrimidin-4-yl)-4,7-diaza-spiro[2.5]oct-4-yl]-acetyl}-benzenesulfonamide] | < 100 | < 100 | < 100 | < 100 |
| N#Cc1ccc(C(F)(F)C(=O)N2[C@@H]3CC[C@H]2CN(c2ncnc4[nH]ccc24)C3)cc1 [Example 65, 4-{1,1-Difluoro-2-oxo-2-[3-(7H-pyrrolo[2,3-d]pyrimidin-4-yl)-3,8-diaza-bicyclo[3.2.1]oct-8-yl]-ethyl}-benzonitrile] | 100 to 500 | 100 to 500 | > 500 | < 100 |
| N#Cc1cc(CC(=O)N2CCN(c3ncnc4[nH]ccc34)CC23CC3)ccc1F [Example 66, 2-Fluoro-5-{2-oxo-2-[7-(7H-pyrrolo[2,3-d]pyrimidin-4-yl)-4,7-diaza-spiro[2.5]oct-4-yl]-ethyl}-benzonitrile] | 100 to 500 | < 100 | > 500 | < 100 |
| N#CCOc1ccc(C(=O)N2CCN(c3ncnc4[nH]ccc34)CC23CC3)cc1 [Example 68, {4-[7-(7H-Pyrrolo[2,3-d]pyrimidin-4-yl)-4,7-diaza-spiro[2.5]octane-4-carbonyl]-phenoxy}-acetonitrile] | 100 to 500 | < 100 | 100 to 500 | < 100 |
| N#CCOc1ccc(CC(=O)N2CCN(c3ncnc4[nH]ccc34)CC23CC3)cc1 [Example 69, (4-{2-Oxo-2-[7-(7H-pyrrolo[2,3-d]pyrimidin-4-yl)-4,7-diaza-spiro[2.5]oct-4-yl]-ethyl}-phenoxy)-acetonitrile] | < 100 | < 100 | > 500 | < 100 |
| N#CCOc1cccc(CC(=O)N2CCN(c3ncnc4[nH]ccc34)CC23CC3)c1 [Example 70, (3-{2-Oxo-2-[7-(7H-pyrrolo[2,3-d]pyrimidin-4-yl)-4,7-diaza-spiro[2.5]oct-4-yl]-ethyl}-phenoxy)-acetonitrile] | 100 to 500 | 100 to 500 | > 500 | 100 to 500 |
| N#Cc1ccc(C(=O)N2[C@@H]3CC[C@H]2CN(c2ncnc4[nH]ccc24)C3)s1 [Example 71, 5-[3-(7H-Pyrrolo[2,3-d]pyrimidin-4-yl)-3,8-diaza-bicyclo[3.2.1]octane-8-carbonyl]-thiophene-2-carbonitrile] | < 100 | < 100 | 100 to 500 | < 100 |
| Cc1nccnc1C(=O)N1[C@@H]2CC[C@H]1CN(c1ncnc3[nH]ccc13)C2 [Example 72, (3-Methyl-pyrazin-2-yl)-[3-(7H-pyrrolo[2,3-d]pyrimidin-4-yl)-3,8-diaza-bicyclo[3.2.1]oct-8-yl]-methanone] | 100 to 500 | 100 to 500 | > 500 | < 100 |
| Cc1cncc(C(=O)N2[C@@H]3CC[C@H]2CN(c2ncnc4[nH]ccc24)C3)n1 [Example 73, (6-Methyl-pyrazin-2-yl)-[3-(7H-pyrrolo[2,3-d]pyrimidin-4-yl)-3,8-diaza-bicyclo[3.2.1]oct-8-yl]-methanone] | 100 to 500 | < 100 | > 500 | 100 to 500 |
| N#Cc1cccc(CS(=O)(=O)N2CCN(c3ncnc4[nH]ccc34)CC23CC3)c1 [Example 76, 3-[7-(7H-Pyrrolo[2,3-d]pyrimidin-4-yl)-4,7-diaza-spiro[2.5]octane-4-sulfonylmethyl]-benzonitrile] | 100 to 500 | < 100 | > 500 | < 100 |
| N#Cc1cccc(CS(=O)(=O)N2[C@@H]3CC[C@H]2CN(c2ncnc4[nH]ccc24)C3)c1 [Example 77, 3-[3-(7H-Pyrrolo[2,3-d]pyrimidin-4-yl)-3,8-diaza-bicyclo[3.2.1]octane-8-sulfonylmethyl]-benzonitrile] | 100 to 500 | < 100 | > 500 | < 100 |
| N#Cc1ccc(CS(=O)(=O)N2[C@@H]3CC[C@H]2CN(c2ncnc4[nH]ccc24)C3)cc1 [Example 78, 4-[3-(7H-Pyrrolo[2,3-d]pyrimidin-4-yl)-3,8-diaza-bicyclo[3.2.1]octane-8-sulfonylmethyl]-benzonitrile] | 100 to 500 | < 100 | > 500 | 100 to 500 |
